Test results as given in patent publication EP4475229A1, “QUINONE-TYPE MOLECULES FOR ZINC-ION AQUEOUS BATTERIES” (Centre National de la Recherche Scientifique, priority 2023, dated 2024).
Converted amounts (≈) assume the structure as drawn. Read-outs that look alike come from different tables or passages of the source. Blank lines part the entries; values can stand above or below the molecule they belong to.

Columns and labels:
[1] = for saturation limit in comparison with compound 2 (2,5 DTBHQ) / saturation limit: 1 week at room temperature; for saturation limit: argon
physchem = settings: water
[2] = cited from earlier work
[3] = Solubility of literature quinones in aqueous electrolytes, reported or estimated from references
[4] = 1.25 M Zn(CH3COO)2, pH 4-5, 10080 min

SMILES: O=C1C(Cl)=C(Cl)C(=O)C(Cl)=C1Cl [p-TCBQ]
Solubility oxidized state ([1]; pH 7): Slightly soluble

SMILES: CC(C)(C)C1=CC(=O)C(C(C)(C)C)=CC1=O [compound 1]
Solubility oxidized state [1, 4]: 26 µM (≈ 5.73 µg/mL)
Solubility reduced state [1, 4]: 204 µM (≈ 44.9 µg/mL)
saturation limit in comparison with compound 2 (2,5 DTBHQ) ([1]; acetate electrolytes): nearly ten times lower
saturation limit ([1]; acetic acid/potassium acetate pH 4.8, acetic acid/zinc acetate pH 4.5, zinc acetate 1.25 M pH 4.2): 26.16 µmol/L
solubility thermodynamic at 1 week (physchem): 5.7 µg/mL (≈ 25.9 µM)

SMILES: Oc1ccc(O)cc1 [1,4-benzohydroquinone]
solubility in water compared with 1,4-benzoquinone ([2]; water, background statement): six times more soluble

Solubility factor vs. 2,5 DTBHQ ([3]; 1M ZnSO4, pH 4-5, ref [1]): ~100
SMILES: NC1=C(N)C(=O)C(N)=C(N)C1=O [TABQ]
Solubility oxidized state ([2]; 1M ZnSO4, pH 4-5, ref [1]): 1.7 mmol/L (≈ 286 µg/mL)

SMILES: O=C1C(=O)C(Cl)=C(Cl)C(Cl)=C1Cl [o-TCBQ]
Solubility oxidized state ([2]; 1M ZnSO4, pH 4-5, ref [1]): 2.3 mmol/L (≈ 566 µg/mL)
Solubility factor vs. 2,5 DTBHQ ([3]; 1M ZnSO4, pH 4-5, ref [1]): ~100

SMILES: CC(C)(C)c1cc(O)ccc1O [compound 8]
Solubility reduced state [1, 4]: 20400 µM (≈ 3390 µg/mL)
saturation limit in comparison with compound 2 (2,5 DTBHQ) ([1]; acetate electrolytes): ~100 times
saturation limit ([1]; acetate electrolytes): 20.4 mM/L

Solubility factor vs. 2,5 DTBHQ ([3]; 1M ZnSO4, pH 4-5, ref [1]): ~100
SMILES: O=C1C(O)=C(O)C(=O)C(O)=C1O [THBQ]
Solubility oxidized state ([2]; 1M ZnSO4, pH 4-5, ref [1]): 3.4 mmol/L (≈ 585 µg/mL)

Solubility factor vs. 2,5 DTBHQ ([3]; 2M ZnSO4, pH 4-5, ref [4]): >11
Solubility factor vs. 2,5 DTBHQ ([3]; 2.5M Li2SO4, pH 7, ref [5]): > 10000
Solubility reduced state ([3]; 4.4M H2SO4, pH 0, ref [5], presumed): Presumed Not soluble
maximum solubility relative to compound 2 (2,5 DTBHQ) ([3]; estimated from ref [4], reduced state): approx. 11 times
SMILES: O=c1c(=O)c2cccc3c2-c2c1cccc2c(=O)c3=O [PTO]
Solubility oxidized state ([2]; 2.5M Li2SO4, pH 7, ref [5]): Soluble (Fig. S21)
Solubility oxidized state ([2]; 4.4M H2SO4, pH 0, ref [5]): 0.0047 (Fig. S18) mmol/L
